Assay results taken from patent US9439875B2, “Anxiolytic effect of pterostilbene” (The United States of America, as represented by The …, priority 2011, dated 2016).
Several values for one entry are separate records, joined by “and”; a condition that tells them apart may be missing. Equal entries are not always repeated. Entries after “also recorded” stand apart in the source; their conditions may differ. Where two headings read alike, the source gives them in different places.

Tests used:
Swiss Webster mice = assay: Spontaneous motor (locomotor) activity; assay type: in vivo, mouse
Procedure: To measure spontaneous motor activity, adult Swiss Webster mice (n=8-10/group) were administered with pterostilbene by oral gavage. Each mouse was then placed in the locomotor chamber and acclimated in the Plexiglas enclosure for 30 min. After the 30 min acclimation period, locomotor activity was measured for 30 min using an automated activity monitoring system (San Diego Instruments, CA, USA). Total activity was expressed as the total number of interruptions of 16 cell photobeams per chamber.

[1] = in vivo; cited from earlier work
[2] = Plasma level of pterostilbene by GC-MS; assay type: in vivo; conditions: mouse, after EPM session; for concentration at 65 min: Swiss Webster, plasma, oral, read-out: Pterostilbene level in the plasma (± SD)
Procedure: (§1) After the EPM session, blood samples were taken from each mouse by submandibular vein puncture in heparinized blood collection vials. Mice were then sacrificed and brains quickly removed. Their prefrontal cortex (PFC) and hippocampus were dissected out on ice, and immediately frozen in liquid nitrogen and stored at −80° C. until further processing. Blood samples were centrifuged at 2000 rpm at 4° C. for 20 min to get the plasma as supernatant. The plasma samples were stored at −80° C. until used.
Plasma were kept at −80° C., and thawed on ice prior to extraction. Plasma were treated with β-glucuronidase, to hydrolyze any glucuronidated pterostilbene, following published procedures (Remsberg et al., supra). Briefly, 50 μL plasma (from each animal) was transferred to an Eppendorf tube, and 60 μL of β-glucuronidase solution (5000 U/mL potassium phosphate buffer, 75 mM, pH 6.8 at 37° C.) was added. The mixture was vortex-mixed then incubated at 37° C. while shaking at 750 rpm for 20 hrs. Thereafter, ice-cold HPLC grade acetonitrile was added, vortex-mixed, and centrifuged for 5 min at 5000 rpm, 4° C. The supernatant was collected, and dried under a stream of nitrogen. The dried supernatant was used for GC-MS analysis.
(§2) The nitrogen-dried samples (plasma and brain tissue extracts) were treated with 30 μL of a 1:1 mixture of N,O-bis[trimethylsilyl]trifluoroacetamide and dimethylformamide (Pierce Biotechnology, Inc., Rockford, Ill.) and heated at 70° C. for 40 min. The derivatized samples were analyzed for levels of pterostilbene using a JEOL GCMate II Instrument (JEOL USA Inc., Peabody, Mass.) equipped with a J&W DB-5 capillary column (0.25 mm internal diameter, 0.25 μm film thickness, and 30 m length; Agilent Technologies, Foster City, Calif.). […] The carrier gas was ultrahigh purity helium, at 1 mL/min flow rate. The injection port, GC-MS interface, and ionization chamber were kept at 250, 230, and 230° C., respectively. The volume of injection was 2 μL (splitless injection). The mass spectrum was acquired in the positive, selected ion-monitoring mode (m/z 328, 313, and 297); electron impact 70 eV. GC-MS analyses were in duplicates. The retention time of pterostilbene was 10.2 min. Quantitation of pterostilbene was done using an external standard of a synthetic sample of pterostilbene previously characterized for structure and purity.

[3] = Prefrontal cortex level of pterostilbene by GC-MS; assay type: in vivo, mouse; conditions: all the doses administered (1-10 mg/kg p.o.)
Procedure: as §1
Hippocampus tissues were kept at −80° C. until time of extraction. Hippocampus (left and right) from 2-3 animals was combined in an Eppendorf tube, and processed as one sample. […]
The nitrogen-dried samples (plasma and brain tissue extracts) were treated with 30 μL of a 1:1 mixture of N,O-bis[trimethylsilyl]trifluoroacetamide and dimethylformamide (Pierce Biotechnology, Inc., Rockford, Ill.) and heated at 70° C. for 40 min. The derivatized samples were analyzed for levels of pterostilbene using a JEOL GCMate II Instrument (JEOL USA Inc., Peabody, Mass.) equipped with a J&W DB-5 capillary column (0.25 mm internal diameter, 0.25 μm film thickness, and 30 m length; Agilent Technologies, Foster City, Calif.). […] Quantitation of pterostilbene was done using an external standard of a synthetic sample of pterostilbene previously characterized for structure and purity.

[4] = Hippocampus level of pterostilbene by GC-MS; assay type: in vivo, mouse; conditions: for Pterostilbene level in the hippocampus (± SD): mouse
Procedure: as §1
Hippocampus tissues were kept at −80° C. until time of extraction. Hippocampus (left and right) from 2-3 animals was combined in an Eppendorf tube, and processed as one sample. To the tube was added 200 μL phosphate buffer (0.2M NaH2PO4:0.2M Na2HPO4, and the tissues were homogenized manually for 2 minutes. To 100 μl aliquot, 50 μL β-glucuronidase (5000 U/mL potassium phosphate buffer) was added. The mixture was vortex-mixed, and incubated (37° C., 20 hours) while shaking (750 rpm). The samples were then centrifuged (15 min, 7000 g, 4° C.). The supernatant was collected and partitioned with ethyl acetate (200 μL, twice). The ethyl acetate layers were combined, dried under a stream of nitrogen, and used for GC-MS analysis. Extraction of the prefrontal cortex (PFC) was performed in the same manner as the hippocampus; PFC tissues from three animals were combined and treated as one sample.
as §2

SMILES: COc1cc(/C=C/c2ccc(O)cc2)cc(OC)c1 [pterostilbene]
- locomotor activity (total number of photobeam interruptions per chamber) (Swiss Webster mice; 1-10 mg/kg by oral gavage, one-way ANOVA): no stimulant or depressive actions; also recorded: no significant effect
- sedating tendency in EPM and locomotor activity monitoring chambers (Swiss Webster mice; higher doses): did not show any sedating tendency
- locomotor activity (Swiss Webster mice; highest dose (10 mg/kg)): didn't have any effect
- spontaneous motor activity (Swiss Webster mice; maximal anxiolytic dose (2 mg/kg), post hoc comparison): not affected
- half-life [1]: approximately 2 hr
- Pterostilbene level in the plasma (± SD) ([2]; 1 mg/kg BW p.o.): 10.0887 ± 6.6699 ng/mL
- Pterostilbene level in the plasma (± SD) ([2]; 10 mg/kg BW p.o.): 130.2651 ± 40.2558 ng/mL
- concentration at 65 min ([2]; 1 mg/kg BW, 1 mg/kg BW p.o.): 10.1 ± 6.67 ng/mL
- concentration at 65 min ([2]; 2 mg/kg BW, 2 mg/kg BW p.o.): 27 ± 7.27 ng/mL
- concentration at 65 min ([2]; 5 mg/kg BW, 5 mg/kg BW p.o.): 72 ± 19 ng/mL
- concentration at 65 min ([2]; 10 mg/kg BW, 10 mg/kg BW p.o.): 130 ± 40.2 ng/mL
- Pterostilbene level in the pre-frontal cortex tissues [3]: trace levels
- Pterostilbene level in the hippocampus (± SD) ([4]; 2 mg/kg BW p.o.): 0.2627 ± 0.0230 ng/hippocampus
- Pterostilbene level in the hippocampus (± SD) ([4]; 5 mg/kg BW p.o.): 0.5314 ± 0.1830 ng/hippocampus
- Pterostilbene level in the hippocampus (± SD) ([4]; 10 mg/kg BW p.o.): 1.1217 ng/hippocampus and 1.1217 ± 0.1322 ng/hippocampus
- Pterostilbene level in the hippocampus ([4]; range over 2, 5 and 10 mg/kg doses): 0.2627-1.1217 ng/hippocampus
